Measured values from article PMC9079923, “Trifluoromethylated proline analogues as efficient tools to enhance the hydrophobicity and to promote passive diffusion transport of the L-prolyl-L-leucyl glycinamide (PLG) tripeptide” (RSC Advances, 2018).
Residues, ends and D or L forms follow the SMILES beside them.

Tests used:
[1] = Parallel artificial membrane permeability assay (PAMPA), in vitro model of the BBB
Method: (§1) We then decided to evaluate the ability of our fluorinated PLG analogues 2 and 3 to cross the BBB through passive diffusion. […] The rate of permeation can be determined by the effective permeability (Pe) as well as the rate of transport values. The membrane retention value can also be obtained and reflects the strength of the interaction between the lipids that mimic the membrane and the peptide.
(§2) The buffer solution was prepared from a commercially concentrated one, supplied by pION. Following the manufacturer's instructions, system solution was adjusted to pH 7.4 using a 0.5 M NaOH solution. The compounds to be analyzed were dissolved in a mixture of buffer solution with 20% of 1-propanol used as co-solvent to ensure their solubility. The PAMPA sandwich was separated, and the donor wells were filled with 195 μL of each compound. A magnetic stirrer was placed in each well. The acceptor plate was put into the donor plate, ensuring that the underside of the membrane was in contact with the buffer. Then, 4 μL of a mixture of phospholipids from a porcine polar brain extract (20 mg mL^−1) in dodecane (composition: 12.6% phosphatidylcholine (PC), 33.1% phosphatidylethanolamine (PE), 18.5% phosphatidylserine (PS), 4.1% phosphatidylinositol (PI), 0.8% phosphatidic acid and 30.9% of other compounds) was added to the filter of each well, followed by 200 μL of buffer solution. The plate was then covered and incubated at room temperature in a saturated humidity atmosphere for 4 h under orbital agitation at 25 μm of unstirred water layer (UWL). After this period, the solution from the donor and acceptor plates was transferred to the UPLC vials. 100 μL of each acceptor and donor samples and 100 μL of t0 samples were injected into the UPLC apparatus.
(§3) Membrane retention was also calculated as the difference of product at t0 and after 4 h in the donor and acceptor compartments.

[2] = Isocratic hydrophobicity index φ0 by RP-HPLC; assay type: physicochemical; settings: RP-C18
Excerpt: The hydrophobicity of the fluorinated analogues of PLG has then been assessed and compared to the native PLG 1 in order to investigate the specific effect imparted by the CF3 group. […] It is based on the measurement of the isocratic hydrophobicity index (φ0) which is defined as the percentage (by volume) of organic solvent required to achieve an equal distribution of compound between the polar mobile and apolar stationary phases. Thus, higher is the φ0 value, more hydrophobic is the compound. The method involves the measurement of the logarithm of retention factor k (log k) values by reversed-phase high-performance liquid chromatography (RP-HPLC) using various organic-phase concentrations in the mobile phase (in our case, the acetonitrile is used). By plotting the log k values as a function of the acetonitrile concentration, the φ0 value can be obtained from the slope and the intercept of the linear regression (φ0 = −intercept/slope). A good correlation between the φ0 and the log P values was shown.[15] The hydrophobicity index of our peptides was first measured at pH 7. […] The φ0 values were then measured at pH 2 to investigate the impact of the possible ionic form of the PLG peptides 1–3 on the hydrophobicity parameter. The lower φ0 value observed for the native PLG 1 is consistent with its expected polar ionic state (entry 1, Table 1). […] Only a slight decrease in the φ0 value is observed for the (S,S,S)-3 (entry 4, Table 1), that of the (R,S,S)-3 diastereomer remaining almost unchanged (entry 5, Table 1).
An Agilent 1200 series high-performance liquid chromatograph coupled to an ELSD detector was used. The reversed-phase HPLC measurements were carried out on a Zorbax® RX-C18 analytical column (4.6 × 250 mm, 5 μm). The mobile phase was 50 mM ammonium acetate and HPLC grade acetonitrile as organic modifier (pH 7.0) or TFA 0.1% buffer aqueous solution and 0.1% TFA HPLC grade acetonitrile (pH 2). The mobile phase flow rate was ranging from 0.1–1.0 mL min^−1. The dead time (t0) was measured by injecting sodium nitrate together with the sample at a concentration of 10 mM. The samples were dissolved at 1 mg/1 mL in water. Few drops of acetonitrile were added when the dissolution of the peptide was incomplete. The logarithm of retention factor k (log k) values were obtained according to the eqn (1):1 [drawing 1] where tR is the retention time of the compound and t0 the retention time of the unretained sodium nitrate solute.
The log k values were plotted as a function of the acetonitrile concentration. The slope (S) and the intercept (log kw) values were calculated from at least three concentrations of acetonitrile. The correlation coefficients of the linear fit were higher than 0.99. The isocratic hydrophobicity index φ0 was calculated according to the eqn (2):2 φ0 = −log kw/Swhere log kw is the log k value extrapolated to the 0% acetonitrile concentration.

[3] = PAMPA, pH 7.4
Method: as §1, §2, §3

[4] = set-up: method as in PMID 12667689; settings: cited from earlier work
[5] = pH 7.4, Effective permeability class according to the empirical BBB permeation prediction, pH 7.4, classes by ref 19
[6] = pH 7.4, Pe (× 10^6), effective permeability, pH 7.4, 4 h, 5 mM, mean ± SD
[7] = pH 7, 50 mM ammonium acetate / acetonitrile

| Interaction with / retention in the membrane (in words) ([1]; pH 7.4, 4 h) | Membrane retention ([1]; pH 7.4, 4 h) | Transport (%) (4 h) ([1]; pH 7.4, 4 h, 5 mM, mean ± SD) | Papp [1, 5] | Papp [1, 6] | φ0 (isocratic hydrophobicity index) ([2]; pH 2, TFA 0.1% / acetonitrile) | φ0 (isocratic hydrophobicity index) [2, 7] | Permeability / ability to cross the membrane by passive diffusion (in words) [3] | Compound | Crossing of the blood–brain barrier (BBB) [4] |
| --- | --- | --- | --- | --- | --- | --- | --- | --- | --- |
| strong interaction with the membrane | 30% | 0.65 ± 0.06% | < 2 ×10⁻⁶ cm/s | 0.31 ± 0.03 ×10⁻⁶ cm/s | – | – | – | CC(C)C[C@H](NC(=O)[C@@]1(C(F)(F)F)CCCN1)C(=O)NCC(N)=O [(R,S)-2, (R)-α-CF3-Pro-L-Leu-Gly-NH2] | – |
| strong interaction with the membrane | 50% | 5.34 ± 0.08% | 2 to 4 ×10⁻⁶ cm/s | 2.68 ± 0.04 ×10⁻⁶ cm/s | – | – | – | CC(C)C[C@H](NC(=O)[C@]1(C(F)(F)F)CCCN1)C(=O)NCC(N)=O [(S,S)-2] | – |
| no peptide was retained in the membrane | – | – | – | – | 9,2 | 12,3 | very negligible | CC(C)C[C@H](NC(=O)[C@@H]1CCCN1)C(=O)NCC(N)=O [compound 1, L-prolyl-L-leucyl glycinamide] (H-Pro-Leu-Gly-NH2) | known to cross the blood–brain barrier |
| – | – | – | – | – | 30,4 | 30,8 | – | (2R,4S)-Ser(Ψ^CF^3,HPro)-L-Leu-Gly-NH2 [(R,S,S)-3] | – |
| – | – | – | – | – | 25,3 | 27,5 | – | (2S,4S)-Ser(Ψ^CF^3,HPro)-L-Leu-Gly-NH2 [(S,S,S)-3] | – |
